Source: patent US10253002B2, “Compounds and methods of treating infections” (Neoculi Pty Ltd., priority 2013, dated 2019)
Values after ≈ are worked out from the molar mass of the structure shown. Like-named read-outs stand apart in the source and are kept apart here.

Tests used:
[1] = test system: Staphylococcus pseudintermedius isolates (MSSP and MRSP); assay: MIC (CLSI), Example 6; type: cell-based
Description: Anti-staphylococcal compounds were then tested against all 23 isolates and minimum inhibitory concentrations (MIC) were determined according to standard protocols. After the MICs were determined, the minimum bactericidal concentrations were performed to determine if these compounds are bacteriostatic or bacteriocidal.

VRE = assay: Broth microdilution MIC, Example 7 (NCL812 and analogues); type: cell-based, Enterococcus spp.; settings: Enterococcus, VRE
How it was run: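 Duplicates per isolate, repeated a third time if >one two-fold dilution apart. MIC50, MIC20 and range calculated per bacterial group.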

[2] = control strain Enterococcus faecalis ATCC 29212; cited from earlier work
[3] = Staphylococcus pseudintermedius isolates

CC1(C)S[C@@H]2[C@H](NC(=O)[C@H](N)c3ccccc3)C(=O)N2[C@H]1C(=O)O [Ampicillin]
MIC50 [1, 3]: 32 mg/L (≈ 91.6 µM) | MIC90 [1, 3]: 128 mg/L (≈ 366 µM) | MIC range [1, 3]: 0.1 to 128 mg/L | MIC ([1]; Staphylococcus pseudintermedius, Staphylococcus pseudintermedius isolates, read-out: MIC mode): 128 mg/L (≈ 366 µM) | MIC ([1]; Staphylococcus pseudintermedius, isolate S5P5, read-out: MIC): 16 mg/L (≈ 45.8 µM) | MIC ([1]; Staphylococcus pseudintermedius, isolate S6P6, read-out: MIC): 64 mg/L (≈ 183 µM) | MIC ([1]; Staphylococcus pseudintermedius, isolate S9P9, read-out: MIC): 32 mg/L (≈ 91.6 µM) | MIC ([1]; Staphylococcus pseudintermedius, isolate S10P10, read-out: MIC): 64 mg/L (≈ 183 µM) | MIC ([1]; Staphylococcus pseudintermedius, isolate S12P12, read-out: MIC): 32 mg/L (≈ 91.6 µM) | MIC ([1]; Staphylococcus pseudintermedius, isolate S13P13, read-out: MIC): 0.25 mg/L (≈ 0.715 µM) | MIC ([1]; Staphylococcus pseudintermedius, isolate S14P14, read-out: MIC): 1 mg/L (≈ 2.86 µM) | MIC ([1]; Staphylococcus pseudintermedius, isolate S15P15, read-out: MIC): 4 mg/L (≈ 11.4 µM) | MIC ([1]; Staphylococcus pseudintermedius, isolate S16P16, read-out: MIC): 0.25 mg/L (≈ 0.715 µM) | MIC ([1]; Staphylococcus pseudintermedius, isolate S17P17, read-out: MIC): 1 mg/L (≈ 2.86 µM) | MIC ([1]; Staphylococcus pseudintermedius, isolate S18P18, read-out: MIC): 4 mg/L (≈ 11.4 µM) | MIC ([1]; Staphylococcus pseudintermedius, isolate S19P19, read-out: MIC): 0.5 mg/L (≈ 1.43 µM) | MIC ([1]; Staphylococcus pseudintermedius, isolate S20P20, read-out: MIC): 4 mg/L (≈ 11.4 µM) | MIC ([1]; Staphylococcus pseudintermedius, isolate S21P21, read-out: MIC): 0.1 mg/L (≈ 0.286 µM) | MIC ([1]; Staphylococcus pseudintermedius, isolate S22P22, read-out: MIC): 8 mg/L (≈ 22.9 µM) | MIC ([1]; Staphylococcus pseudintermedius, isolate S23P23, read-out: MIC): 32 mg/L (≈ 91.6 µM) | MIC ([1]; isolate S1P1): 128 mg/L (≈ 366 µM) | MIC ([1]; isolate S3P3): 128 mg/L (≈ 366 µM) | MIC ([1]; isolate S4P4): 128 mg/L (≈ 366 µM) | MIC ([1]; isolate S7P7): 128 mg/L (≈ 366 µM) | MIC ([1]; isolate S8P8): 128 mg/L (≈ 366 µM) | MIC ([1]; isolate S11P11): 128 mg/L (≈ 366 µM) | MIC (VRE; 24 h, read-out: MIC (μg/ml) at 24 hours, VRE 1, isolate VRE 1, 24 hours, 1st and 2nd replicate rows): 0.5 µg/mL (≈ 1.43 µM) | MIC (VRE; 24 h, read-out: MIC (μg/ml) at 24 hours, VRE 2, isolate VRE 2, 24 hours, 1st and 2nd replicate rows): 0.25 µg/mL (≈ 0.715 µM) | MIC (VRE; VRE 002 [H12c], Phase I, 1st, read-out: MIC): 1 µg/mL (≈ 2.86 µM) | MIC (VRE; VRE 002 [H12c], Phase I, 2nd, read-out: MIC): 1 µg/mL (≈ 2.86 µM) | MIC (VRE; VRE 002 [H12c], Phase II, 1st, read-out: MIC): 0.25 µg/mL (≈ 0.715 µM) | MIC (VRE; VRE 002 [H12c], Phase II, 2nd, read-out: MIC): 0.25 µg/mL (≈ 0.715 µM) | MIC (VRE; VRE 003 [H14t], Phase I, 1st, read-out: MIC): 0.5 µg/mL (≈ 1.43 µM) | MIC (VRE; VRE 003 [H14t], Phase I, 2nd, read-out: MIC): 0.5 µg/mL (≈ 1.43 µM) | MIC (VRE; VRE 003 [H14t], Phase II, 1st, read-out: MIC): 0.25 µg/mL (≈ 0.715 µM) | MIC (VRE; VRE 003 [H14t], Phase II, 2nd, read-out: MIC): 0.25 µg/mL (≈ 0.715 µM) | MIC (VRE; VRE 004 [H16c], Phase I, 1st, read-out: MIC): 1 µg/mL (≈ 2.86 µM) | MIC (VRE; VRE 004 [H16c], Phase I, 2nd, read-out: MIC): 1 µg/mL (≈ 2.86 µM) | MIC (VRE; VRE 004 [H16c], Phase II, 1st, read-out: MIC): 0.25 µg/mL (≈ 0.715 µM) | MIC (VRE; VRE 004 [H16c], Phase II, 2nd, read-out: MIC): 0.25 µg/mL (≈ 0.715 µM) | MIC (VRE; VRE 005 [H17c], Phase I, 1st, read-out: MIC): 1 µg/mL (≈ 2.86 µM) | MIC (VRE; VRE 005 [H17c], Phase I, 2nd, read-out: MIC): 1 µg/mL (≈ 2.86 µM) | MIC (VRE; VRE 005 [H17c], Phase II, 1st, read-out: MIC): 0.25 µg/mL (≈ 0.715 µM) | MIC (VRE; VRE 005 [H17c], Phase II, 2nd, read-out: MIC): 0.25 µg/mL (≈ 0.715 µM) | MIC (VRE; VRE 006 [H19t], Phase I, 1st, read-out: MIC): 1 µg/mL (≈ 2.86 µM) | MIC (VRE; VRE 006 [H19t], Phase I, 2nd, read-out: MIC): 1 µg/mL (≈ 2.86 µM) | MIC (VRE; VRE 006 [H19t], Phase II, 1st, read-out: MIC): 0.25 µg/mL (≈ 0.715 µM) | MIC (VRE; VRE 006 [H19t], Phase II, 2nd, read-out: MIC): 0.25 µg/mL (≈ 0.715 µM) | MIC (VRE; VRE 007 [H23c], Phase I, 1st, read-out: MIC): 1 µg/mL (≈ 2.86 µM) | MIC (VRE; VRE 007 [H23c], Phase I, 2nd, read-out: MIC): 1 µg/mL (≈ 2.86 µM) | MIC (VRE; VRE 007 [H23c], Phase II, 1st, read-out: MIC): 0.25 µg/mL (≈ 0.715 µM) | MIC (VRE; VRE 007 [H23c], Phase II, 2nd, read-out: MIC): 0.25 µg/mL (≈ 0.715 µM) | MIC (VRE; VRE 008 [H16c(dc)], Phase I, 1st, read-out: MIC): 1 µg/mL (≈ 2.86 µM) | MIC (VRE; VRE 008 [H16c(dc)], Phase I, 2nd, read-out: MIC): 1 µg/mL (≈ 2.86 µM) | MIC (VRE; VRE 008 [H16c(dc)], Phase II, 1st, read-out: MIC): 1 µg/mL (≈ 2.86 µM) | MIC (VRE; VRE 008 [H16c(dc)], Phase II, 2nd, read-out: MIC): 1 µg/mL (≈ 2.86 µM) | MIC (VRE; VRE 009 [H25c], Phase I, 1st, read-out: MIC): 1 µg/mL (≈ 2.86 µM) | MIC (VRE; VRE 009 [H25c], Phase I, 2nd, read-out: MIC): 1 µg/mL (≈ 2.86 µM) | MIC (VRE; VRE 009 [H25c], Phase II, 1st, read-out: MIC): 1 µg/mL (≈ 2.86 µM) | MIC (VRE; VRE 009 [H25c], Phase II, 2nd, read-out: MIC): 1 µg/mL (≈ 2.86 µM) | MIC (VRE; VRE 010 [H26c(w)], Phase I, 1st, read-out: MIC): 2 µg/mL (≈ 5.72 µM) | MIC (VRE; VRE 010 [H26c(w)], Phase I, 2nd, read-out: MIC): 2 µg/mL (≈ 5.72 µM) | MIC (VRE; VRE 010 [H26c(w)], Phase II, 1st, read-out: MIC): 1 µg/mL (≈ 2.86 µM) | MIC (VRE; VRE 010 [H26c(w)], Phase II, 2nd, read-out: MIC): 1 µg/mL (≈ 2.86 µM) | MIC (VRE; VRE 011 [H26c(dc)], Phase I, 1st, read-out: MIC): 1 µg/mL (≈ 2.86 µM) | MIC (VRE; VRE 011 [H26c(dc)], Phase I, 2nd, read-out: MIC): 1 µg/mL (≈ 2.86 µM) | MIC (VRE; VRE 011 [H26c(dc)], Phase II, 1st, read-out: MIC): 0.5 µg/mL (≈ 1.43 µM) | MIC (VRE; VRE 011 [H26c(dc)], Phase II, 2nd, read-out: MIC): 0.5 µg/mL (≈ 1.43 µM) | MIC (VRE; VRE 012 [H35t], Phase I, 1st, read-out: MIC): 0.5 µg/mL (≈ 1.43 µM) | MIC (VRE; VRE 012 [H35t], Phase I, 2nd, read-out: MIC): 0.5 µg/mL (≈ 1.43 µM) | MIC (VRE; VRE 012 [H35t], Phase II, 1st, read-out: MIC): 0.25 µg/mL (≈ 0.715 µM) | MIC (VRE; VRE 012 [H35t], Phase II, 2nd, read-out: MIC): 0.5 µg/mL (≈ 1.43 µM) | MIC (VRE; VRE 013 [H37c(w)], Phase I, 1st, read-out: MIC): 2 µg/mL (≈ 5.72 µM) | MIC (VRE; VRE 013 [H37c(w)], Phase I, 2nd, read-out: MIC): 2 µg/mL (≈ 5.72 µM) | MIC (VRE; VRE 013 [H37c(w)], Phase II, 1st, read-out: MIC): 1 µg/mL (≈ 2.86 µM) | MIC (VRE; VRE 013 [H37c(w)], Phase II, 2nd, read-out: MIC): 1 µg/mL (≈ 2.86 µM) | MIC (VRE; VRE 014 [H37c(g)], Phase I, 1st, read-out: MIC): 1 µg/mL (≈ 2.86 µM) | MIC (VRE; VRE 014 [H37c(g)], Phase I, 2nd, read-out: MIC): 1 µg/mL (≈ 2.86 µM) | MIC (VRE; VRE 014 [H37c(g)], Phase II, 1st, read-out: MIC): 1 µg/mL (≈ 2.86 µM) | MIC (VRE; VRE 014 [H37c(g)], Phase II, 2nd, read-out: MIC): 1 µg/mL (≈ 2.86 µM) | Acceptable MIC range for Ampicillin [2]: 0.5 to 2 mg/L
